The values that follow are results of earlier work, collected in US20220016119A1, “METHODS AND TREATMENTS FOR ERECTILE DYSFUNCTION” (Record Buck Farms Medical Cannabis, LLC, priority 2018, published 2022).

Structures are written as SMILES.

For this series the following is noted: doses of up to 1500 mg/day.

As to `C=C(C)[C@@H]1CCC(C)=C[C@H]1c1c(O)cc(CCCCC)cc1O` [Cannabidiol, cannabidiol], the “adverse effects in patients” value was “no significant adverse effects”.
